The text below walks through data of patent US9427409B2, “Composition and method for aiding sleep” (priority 2014, dated 2016).

Where “and” joins values, the source holds several entries; their conditions need not be identical. Equal entries are not always repeated.

A short description of the data set: In vitro pH-dependent release of each active agent from three-stage release capsules. The data set is classed as physicochemical. The note with it: individual capsules (Cap# 1-6). The method, then: The capsules were designed to release the three drugs in a staged sequence controlled via pH-dependent coatings: uncoated diphenhydramine HCl for immediate release, coated zolpidem for release about 2 hours after administration, and coated lorazepam for release about 4 hours after administration.
Each capsule contained the following agents: (1) 50 mg of uncoated diphenhydramine HCl; (2) 5 mg of zolpidem tartrate in multiparticulate form coated with […]® L30 D-55, which dissolves at above pH 5.5 (with half-maximal drug release at pH 5.8 and maximal release at pH 6.3); and (3) 0.5 mg of lorazepam in multiparticulate form coated with […]® L/S 12.5 (1:1), which dissolves at above pH 6.5 (with half-maximal drug release at pH 7.2). The coatings were selected to achieve release of zolpidem tartrate with gastric emptying and release of lorazepam when the drug reaches the intestines.
Six capsules were individually tested in beakers for pH-dependent release of each active agent.

[1] abbreviates: At 30 min in pH 2 (At time zero pH 2).
Setting [2] is: At 150 min in pH 6.4 (At 120 min changed to pH 6.4).
[3] abbreviates: At 270 min in pH 7.2 (At 240 min changed to pH 7.2).

Take `CN(C)CCOC(c1ccccc1)c1ccccc1` [Diph, 2-(diphenylmethoxy)-N,N-dimethylethanamine]: the “% Release” value runs as follows: under setting [1], 93.4% and 89.8% and 98.2% and 98.7% and 96.8% and 97.3%; (At 30 min in pH 2 (At time zero pH 2), listed as diphenhydramine HCl) “more than 89%”; under setting [2], 98.0% and 100% (3×) and 99.9% (2×); under setting [3], 99.9% and 100% (2×) and 99.8% and 99.1% and 99.2%.

For the molecule `O=C1Nc2ccc(Cl)cc2C(c2ccccc2Cl)=NC1O` (racemic) [Lora, (RS)-7-Chloro-5-(2-chlorophenyl)-3-hydroxy-1,3-dihydro-2H-1,4-benzodiazepin-2-one], the “% Release” value was 0% under setting [1]; “neither zolpidem tartrate nor lorazepam was released” (At 30 min in pH 2 (At time zero pH 2), listed as lorazepam); 0% under setting [2]; “but not lorazepam, was released” (At 150 min in pH 6.4 (At 120 min changed to pH 6.4), listed as lorazepam); 81.3% and 77.2% and 80.1% and 83.2% and 70.2% and 72.1% under setting [3]; “more than 70%” (At 270 min in pH 7.2 (At 240 min changed to pH 7.2), listed as lorazepam).
